How the values were obtained:
[1] = system: thoracic aorta of rabbits fed 1% cholesterol diet; test: Analysis for fatty streak deposition in thoracic aorta; assay type: in vivo, rabbit; conditions: microscopic pictures, 1% cholesterol plus 0.15% bioflavonoid or 1.5 mg/kg simvastatin, control: thick layer
Procedure: The chest wall of each rabbit (sacrificed in Step B) was incised, a portion of thoracic aorta from 1 cm site above aortic valve downward for 5 cm was cut out. The surrounding fatty tissues were removed, the aorta was incised longitudinally and pinned to a dish. The moist aorta was then photographed, and staining of fatty streak was carried out with the method described by Esper, E. et al. (Journal of Lab. Clinical Medicine; 121, pp 103-110(1993)) as follows.
The opened portion of aortas were pinned to a wooden tongue depressor, washed three times for 2 minutes with anhydrous propylene glycol and stained for 30 minutes with saturated solution of Oil Red O dissolved in propylene glycol. Then the aortas were washed twice for 3 minutes with 85% propylene glycol, to remove remaining staining solution by washing with normal saline solution. The aortas were photographed, and the photographs were traced with an image analyzer (LEICA, Q-600, Germany), and the area of stained portion were fatty streak region, its proportion in percentile (%) to the total aorta area were calculated.

[2] = system: liver of rabbits fed 1% cholesterol diet; test: Fatty degeneration in the liver of the rabbits; assay type: in vivo, rabbit; conditions: 1% cholesterol plus 0.15% bioflavonoid or 1.5 mg/kg Simvastatin
From the text: According to the report of Fogt F. and Nanji A., (Toxicology and Applied Pharmacology; 136, pp 87-93, 1996) and Keegan A. et al., (Journal of Hepatology; 23, pp 591-600, 1995). […]

[3] = system: ICR female mice; conditions: single oral dose (rutin 1500, quercetin 125, kaempherol 1000, vitexin 500 mg/kg), observed 30 days
[4] = molecular target: T1, 3-HMG-CoA reductase (Oryctolagus cuniculus, UniProt Q29512); test: Activity of 3-HMG-CoA reductase in liver microsomes (modified Hulcher's method); assay type: biochemical, rabbit; conditions: liver microsomes of rabbits fed 8 weeks 1% cholesterol plus 0.15% bioflavonoid; control group 0%
T1 construct: ultracentrifuged at 100,000 times gram for 60 minutes and again for another 60 minutes to obtain microsomal precipitates; from tissue; host or cells: rabbit liver microsomes
T1 sequence (Q29512 1-888): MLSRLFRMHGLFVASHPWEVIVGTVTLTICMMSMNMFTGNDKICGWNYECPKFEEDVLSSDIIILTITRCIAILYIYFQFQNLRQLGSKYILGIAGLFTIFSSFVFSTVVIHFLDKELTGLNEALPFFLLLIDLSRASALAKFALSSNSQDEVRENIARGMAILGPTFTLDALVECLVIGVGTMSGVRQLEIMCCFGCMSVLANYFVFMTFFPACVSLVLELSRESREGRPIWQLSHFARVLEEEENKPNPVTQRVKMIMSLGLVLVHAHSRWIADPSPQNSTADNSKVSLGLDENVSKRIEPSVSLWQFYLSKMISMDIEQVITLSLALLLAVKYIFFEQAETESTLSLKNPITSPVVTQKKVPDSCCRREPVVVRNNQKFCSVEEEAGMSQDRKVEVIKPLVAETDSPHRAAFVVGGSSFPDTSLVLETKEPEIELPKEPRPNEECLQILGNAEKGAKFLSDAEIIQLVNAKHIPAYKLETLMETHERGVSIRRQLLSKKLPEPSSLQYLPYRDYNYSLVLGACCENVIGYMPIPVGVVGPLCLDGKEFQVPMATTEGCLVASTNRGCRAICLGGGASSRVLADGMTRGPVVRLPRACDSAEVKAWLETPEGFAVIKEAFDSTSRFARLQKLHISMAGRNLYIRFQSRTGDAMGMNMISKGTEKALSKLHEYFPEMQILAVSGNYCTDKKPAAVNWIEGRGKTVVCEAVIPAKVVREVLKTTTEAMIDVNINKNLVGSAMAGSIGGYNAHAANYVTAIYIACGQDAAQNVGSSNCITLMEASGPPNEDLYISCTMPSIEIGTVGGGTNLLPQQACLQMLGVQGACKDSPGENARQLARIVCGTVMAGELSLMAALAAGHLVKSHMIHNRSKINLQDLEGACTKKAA

With `O=c1c(O)c(-c2ccc(O)cc2)oc2cc(O)cc(O)c12` [Kaempherol, 3,5,7,4′ tetra-hydroxy-flavone] the “macrophage lipid cell complex in the aorta walls (FIGS. IB-IF)” value (“macrophage lipid cell complex” for short) [1] was “no or a very thin layer of macrophage lipid cell complex”, the “microscopic features of the liver (FIGS. 2B-2F)” value (“microscopic features” below) [2] was “almost all of the liver cells are normal without containing fat particles” and the survival [3] was “alive at day 31”.

For `O=c1cc(-c2ccc(O)cc2)oc2c(C3O[C@H](CO)[C@@H](O)[C@H](O)[C@H]3O)c(O)cc(O)c12` (stereo partly drawn) [Vitexin, 8-D-glucosyl-4′,5,7 trihydroxy-flavone], the “macrophage lipid cell complex” value [1] was “no or a very thin layer of macrophage lipid cell complex”, the “microscopic features” value [2] was “almost all of the liver cells are normal without containing fat particles” and the “Inhibition on the activity of 3-HMG-CoA reductase in percentage (%)” value [4] was 30%. For the same compound, the body weight [3] was “no body weight loss” and the survival [3] was “alive at day 31”.

`O=c1c(O)c(-c2ccc(O)c(O)c2)oc2cc(O)cc(O)c12` [Quercetin, 3,5,7,3′,4′ penta-hydroxy flavone] was tested, and the “macrophage lipid cell complex” value [1] was “no or a very thin layer of macrophage lipid cell complex”, the “microscopic features” value [2] was “almost all of the liver cells are normal without containing fat particles” and the “Inhibition on the activity of 3-HMG-CoA reductase in percentage (%)” value [4] was 32%. The survival [3] was “alive at day 31”.

For `C[C@@H]1O[C@@H](OC[C@H]2O[C@@H](Oc3c(-c4ccc(O)c(O)c4)oc4cc(O)cc(O)c4c3=O)[C@H](O)[C@@H](O)[C@@H]2O)[C@H](O)[C@H](O)[C@H]1O` [Rutin, quercetin-3-rutinoside], the “Inhibition on the activity of 3-HMG-CoA reductase in percentage (%)” value [4] was 45%, the body weight [3] was “no body weight loss” and the survival [3] was “alive at day 31”.

From patent publication US20060040911A1, “Method for preventing and/or treating the cardiovascular and hepatic diseases induced by hyperlipidemia which comprises administered an effective amount of bioflavonoids extract derived from fructus crataegus (lipid metabolism and fructus crataegus)” (priority 2003, published 2006)
